According to PMC9824425, “Ammonium Uptake, Mediated by Ammonium Transporters, Mitigates Manganese Toxicity in Duckweed, Spirodela polyrhiza” (Plants, 2023):

Key:
SpAMT1;3 = conditions: NH4Cl 10-10,000 µM; pH 5.5 (MES/Tris); choline chloride 110 mM; membrane potential for the fit not told
SpAMT1;1 = conditions: NH4Cl 10-10,000 µM; pH 5.5 (MES/Tris); choline chloride 110 mM; membrane potential for the fit not told

## N [ammonium]
SpAMT1;3
  Km: 5400 µM
SpAMT1;1
  Km: 116 µM
